From patent US6737383B1, “Herbicidal oxadiazolidines” (priority 1999, dated 2004)

How the values were obtained:
[1] = system: common ragweed; experiment: Test C postemergence common ragweed; type: in vivo, Ambrosia elatior; details: 0 to 100 scale, 0 no effect, 100 complete control
Method: (§1) Compounds evaluated in this test were formulated in a non-phytotoxic solvent mixture which included a surfactant and applied to plants that were grown for various periods of time before treatment (postemergence application). A mixture of sandy loam soil and greenhouse potting mix in a 60:40 ratio was used for the postemergence test.
(§2) Plantings of these crops and weed species were adjusted to produce plants of appropriate size for the postemergence test. All plant species were grown using normal greenhouse practices. Crop and weed species include arrowleaf sida (Sida rhombifolia), barnyardgrass (Echinochloa crus-galli), cocklebur (Xanthium strumarium), common ragweed (Ambrosia elatior), corn (Zea mays), cotton (Gossypium hirsutum), eastern black nightshade (Solanum ptycanthum), fall panicum (Panicum dichotomiflorum), field bindweed (Convolvulus arvensis), giant foxtail (Setaria faberii), hairy beggarticks (Bidens pilosa), ivyleaf morningglory (Ipomoea hederacea), johnsongrass (Sorghum halepense), ladysthumb smartweed (Polygonum persicaria), lambsquarters (Chenopodium album), large crabgrass (Digitaria sanguinalis), purple nutsedge (Cyperus rotundus), redroot pigweed (Amaranthus retroflexus), soybean (Glycine max), surinam grass (Brachiaria decumbens), velvetleaf (Abutilon theophrasti) and wild poinsettia (Euphorbia heterophylla).
(§3) Treated plants and untreated controls were maintained in a greenhouse for approximately 14, to 21 days, after which all treated plants were compared to untreated controls and visually evaluated. Plant response ratings, summarized in Table C, were based upon a 0 to 100 scale where 0 was no effect and 100 was complete control. A dash response (−) means no test result.

[2] = system: eastern black nightshade; experiment: Test C postemergence eastern black nightshade; type: in vivo, Solanum ptycanthum; details: 0 to 100 scale, 0 no effect, 100 complete control
Outline: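 Soil: sandy loam/potting mix 60:40. Treatment: postemergence, solvent + surfactant formulation. Readout: visual control score 0–100 vs untreated at ~14–21 days.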

[3] = system: wild poinsettia; experiment: Test C postemergence wild poinsettia; type: in vivo, Euphorbia heterophylla; details: 0 to 100 scale, 0 no effect, 100 complete control
Method: as §1, §2, §3

[4] = system: chickweed; experiment: Test E chickweed; type: in vivo, Stellaria media; details: Postemergence; for Plant response rating, Chickweed: 0 to 100 scale; for Chickweed plant response rating: Rate 250 g/ha, 0 to 100 scale where 0 is no effect and 100 is complete control
Method: as §1, with “in the 1- to 4-leaf stage” for “grown for various periods of time before treatment”
(§4) Plantings of these crops and weed species were adjusted to produce plants of appropriate size for the postemergence test. All plant species were grown using normal greenhouse practices. Crop and weed species include annual bluegrass (Poa annua), blackgrass (Alopecurus myosuroides), black nightshade (Solanum nigra), chickweed (Stellaria media), common poppy (Papaver rhoeas), deadnettle (Lamium amplexicaule), downy brome (Bromus tectorum), field violet (Viola arvensis), galium (Galium aparine), green foxtail (Setaria viridis), Italian ryegrass (Lolium multiflorum), jointed goatgrass (Aegilops cylindrica), kochia (Kochia scoparia), lambsquarters (Chenopodium album), littleseed canarygrass (Phalaris minor), rape (Brassica napus), redroot pigweed (Amaranthus retroflexus), Russian thistle (Salsola kali), scentless chamomile (Matricaria inodora), spring barley (Hordeum vulgare), sugar beet (Beta vulgaris), sunflower (Helianthus annuus), ivyleaf speedwell (Veronica hederaefolia), spring wheat (Triticum aestivum), winter wheat (Triticum aestivum), wild buckwheat (Polygonum convolvulus), wild mustard (Sinapis arvensis), wild oat (Avena fatua), windgrass (Apera spica-venti) and winter barley (Hordeum vulgare).
(§5) Treated plants and untreated controls were maintained in a greenhouse for approximately 21 to 28 days, after which all treated plants were compared to untreated controls and visually evaluated. […] A dash response (-) means no test result.

[5] = system: sunflower; experiment: Test E sunflower; type: in vivo, Helianthus annuus; details: Postemergence; for Plant response rating, Sunflower: 0 to 100 scale; for Sunflower plant response rating: Rate 250 g/ha, 0 to 100 scale where 0 is no effect and 100 is complete control
Outline: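 Greenhouse test: compounds in non-phytotoxic solvent with surfactant; for postemergence, sprayed on plants at 1- to 4-leaf stage grown in 60:40 sandy loam/potting mix. Injury rated visually against untreated controls after about 21 to 28 days.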

[6] = system: spring wheat; experiment: Test E spring wheat; type: in vivo, Triticum aestivum; details: Postemergence; for Plant response rating, Spring Wheat: 0 to 100 scale; for Spring Wheat plant response rating: Rate 250 g/ha, 0 to 100 scale where 0 is no effect and 100 is complete control
Method: as §1, with “in the 1- to 4-leaf stage” for “grown for various periods of time before treatment”
as §4, §5

[7] = system: wild oat; experiment: Test E wild oat; type: in vivo, Avena fatua; details: Postemergence; for Plant response rating, Wild oat: 0 to 100 scale
Method: as §1, with “in the 1- to 4-leaf stage” for “grown for various periods of time before treatment”
as §4, §5

[8] = system: lambsquarters; experiment: Test E lambsquarters; type: in vivo, Chenopodium album; details: Preemergence; for Lambsquarters plant response rating (0 to 100 scale): Rate 250 g/ha
[9] = system: rape; experiment: Test E rape; type: in vivo, Brassica napus; details: Preemergence; for Rape plant response rating (0 to 100 scale): Rate 250 g/ha
[10] = system: wild buckwheat; experiment: Test E wild buckwheat; type: in vivo, Polygonum convolvulus; details: Preemergence; for Wild buckwheat plant response rating (0 to 100 scale): Rate 250 g/ha
[11] = system: common pursiane; experiment: Test D common purslane; type: in vivo, Portulaca oleracea; details: Postemergence, 0 to 100 scale
[12] = system: common groundsel; experiment: Test D common groundsel; type: in vivo, Senecio vulgaris; details: Postemergence, 0 to 100 scale
[13] = system: pitted morningglory; experiment: Test D pitted morningglory; type: in vivo, Ipomoea lacunosa; details: Postemergence, 0 to 100 scale
[14] = system: sandbur; experiment: Test D sandbur; type: in vivo, Cenchrus echinatus; details: Postemergence, 0 to 100 scale
[15] = system: surinam grass; experiment: Test D surinam grass; type: in vivo, Brachiaria decumbens; details: Postemergence, 0 to 100 scale
[16] = system: Green foxtail; experiment: Test D green foxtail; type: in vivo; details: Postemergence, 0 to 100 scale, 0 no injury, 100 complete control
[17] = Rate 125 g/ha, 0 to 100 scale (0 no effect, 100 complete control)
[18] = Rate 125 g/ha, 0 is no effect, 100 is complete control
[19] = Rate 500 g/ha, 0 is no effect, 100 is complete control
[20] = Rate 16 g/ha, 0 no injury, 100 complete control
[21] = Rate 32 g/ha, 0 no injury, 100 complete control
[22] = Rate 64 g/ha, 0 no injury, 100 complete control
[23] = Rate 125 g/ha, 0 no injury, 100 complete control
[24] = Rate 500 g/ha, 0 to 100 scale where 0 is no effect and 100 is complete control

## CC(C)N(C(=O)n1oc(=O)n(C)c1=O)c1ccc(F)cc1 [Compound 138]
[1]; Rate 140 g/ha
  Plant response rating Common ragweed: 0
[1]; Rate 280 g/ha
  Plant response rating Common ragweed: 0
[1]; Rate 560 g/ha
  Plant response rating Common ragweed: 0
[2]; Rate 140 g/ha
  Plant response rating E. blacknightsh: 0
[2]; Rate 280 g/ha
  Plant response rating E. blacknightsh: 10
[2]; Rate 560 g/ha
  Plant response rating E. blacknightsh: 70
[2]; Rate 1120 g/ha
  Plant response rating E. blacknightsh: 70
[3]; Rate 140 g/ha
  Plant response rating Wild poinsettia: 0
[3]; Rate 280 g/ha
  Plant response rating Wild poinsettia: 0
[3]; Rate 560 g/ha
  Plant response rating Wild poinsettia: 0
[3]; Rate 1120 g/ha
  Plant response rating Wild poinsettia: 70
[4]; Rate 125 g/ha
  Plant response rating, Chickweed: 0
[4]
  Chickweed plant response rating: 0
[5]; Rate 125 g/ha
  Plant response rating, Sunflower: 0
[5]
  Sunflower plant response rating: 0
[6]; Rate 125 g/ha
  Plant response rating, Spring Wheat: 0
[6]
  Spring Wheat plant response rating: 0
[7]; Rate 125 g/ha
  Plant response rating, Wild oat: 0
[7]; Rate 250 g/ha, 0 to 100 scale where 0 is no effect and 100 is complete control
  Wild oat plant response rating: 0
[8]; [17]
  Plant response rating Lambsquarters: 100
[8]
  Lambsquarters plant response rating (0 to 100 scale): 100
[9]; [17]
  Plant response rating, Rape: 30
[9]
  Rape plant response rating (0 to 100 scale): 95
[10]; [17]
  Plant response rating, Wild buckwheat: 50
[10]
  Wild buckwheat plant response rating (0 to 100 scale): 100

## CC(C)N(C(=O)n1oc(=O)n(C2CC2)c1=O)c1ccc(F)cc1 [Compound 242]
[1]; Rate 140 g/ha
  Plant response rating Common ragweed: 0
[1]; Rate 280 g/ha
  Plant response rating Common ragweed: 10
[1]; Rate 560 g/ha
  Plant response rating Common ragweed: 80
[1]; Rate 1120 g/ha
  Plant response rating Common ragweed: 80
[2]; Rate 140 g/ha
  Plant response rating E. blacknightsh: 0
[2]; Rate 280 g/ha
  Plant response rating E. blacknightsh: 40
[2]; Rate 560 g/ha
  Plant response rating E. blacknightsh: 60
[2]; Rate 1120 g/ha
  Plant response rating E. blacknightsh: 90
[3]; Rate 140 g/ha
  Plant response rating Wild poinsettia: 0
[3]; Rate 280 g/ha
  Plant response rating Wild poinsettia: 0
[3]; Rate 560 g/ha
  Plant response rating Wild poinsettia: 0
[3]; Rate 1120 g/ha
  Plant response rating Wild poinsettia: 85
[4]; Rate 62 g/ha
  Plant response rating, Chickweed: 0
[4]; [18]
  Plant response rating, Chickweed: 30
[4]
  Chickweed plant response rating: 0
[4]; [19]
  Plant response rating, Chickweed: 50
[5]; Rate 62 g/ha
  Plant response rating, Sunflower: 10
[5]; [18]
  Plant response rating, Sunflower: 10
[5]
  Sunflower plant response rating: 0
[5]; [19]
  Plant response rating, Sunflower: 20
[6]; Rate 62 g/ha
  Plant response rating, Spring Wheat: 15
[6]; [18]
  Plant response rating, Spring Wheat: 20
[6]
  Spring Wheat plant response rating: 10
[6]; [19]
  Plant response rating, Spring Wheat: 20
[7]; [18]
  Plant response rating, Wild oat: 0
[7]; [19]
  Plant response rating, Wild oat: 20
[11]; [20]
  Plant response rating, C. purslane: 0
[11]; [21]
  Plant response rating, C. purslane: 0
[11]; [22]
  Plant response rating, C. purslane: 0
[11]; [23]
  Plant response rating, C. purslane: 0
[11]; Rate 250 g/ha
  Plant response rating, C. purslane: 0
[12]; [20]
  Plant response rating, Com. groundsel: 0
[12]; [21]
  Plant response rating, Com. groundsel: 100
[12]; [22]
  Plant response rating, Com. groundsel: 90
[12]; [23]
  Plant response rating, Com. groundsel: 90
[12]; Rate 250 g/ha
  Plant response rating, Com. groundsel: 100
[13]; [20]
  Plant response rating, P. morninglory: 0
[13]; [21]
  Plant response rating, P. morninglory: 0
[13]; [22]
  Plant response rating, P. morninglory: 0
[13]; [23]
  Plant response rating, P. morninglory: 0
[13]; Rate 250 g/ha
  Plant response rating, P. morninglory: 0
[14]; [20]
  Plant response rating, Sandbur: 20
[14]; [21]
  Plant response rating, Sandbur: 30
[14]; [22]
  Sandbur plant response rating: 50
[14]; [23]
  Sandbur plant response rating: 100
[14]; Rate 250 g/ha
  Plant response rating, Sandbur: 100
[15]; [20]
  Plant response rating, Surinam grass: 0
[15]; [21]
  Plant response rating, Surinam grass: 30
[15]; [22]
  Surinam grass plant response rating: 100
[15]; [23]
  Surinam grass plant response rating: 100
[15]; Rate 250 g/ha
  Plant response rating, Surinam grass: 100
[8]; [17]
  Plant response rating Lambsquarters: 100
[8]
  Lambsquarters plant response rating (0 to 100 scale): 100
[8]; [24]
  Plant response rating Lambsquarters: 100
[9]; [17]
  Plant response rating, Rape: 50
[9]
  Rape plant response rating (0 to 100 scale): 60
[9]; [24]
  Plant response rating, Rape: 85
[10]; [17]
  Plant response rating, Wild buckwheat: 60
[10]
  Wild buckwheat plant response rating (0 to 100 scale): 70
[10]; [24]
  Plant response rating, Wild buckwheat: 100
[16]; Rate 16 g/ha
  Plant response rating, Green foxtail: 30
[16]; Rate 32 g/ha
  Plant response rating, Green foxtail: 100

## CC(C)N(C(=O)n1oc(=O)n(C2CCCCCC2)c1=O)c1ccc(F)cc1F [Compound 342]
[11]; [20]
  Plant response rating, C. purslane: 0
[11]; [21]
  Plant response rating, C. purslane: 0
[11]; [22]
  Plant response rating, C. purslane: 0
[11]; [23]
  Plant response rating, C. purslane: 0
[11]; Rate 250 g/ha
  Plant response rating, C. purslane: 0
[12]; [21]
  Plant response rating, Com. groundsel: 0
[12]; [23]
  Plant response rating, Com. groundsel: 0
[12]; Rate 250 g/ha
  Plant response rating, Com. groundsel: 0
[13]; [20]
  Plant response rating, P. morninglory: 0
[13]; [21]
  Plant response rating, P. morninglory: 0
[13]; [22]
  Plant response rating, P. morninglory: 0
[13]; [23]
  Plant response rating, P. morninglory: 0
[13]; Rate 250 g/ha
  Plant response rating, P. morninglory: 0
[14]; [20]
  Plant response rating, Sandbur: 0
[14]; [21]
  Plant response rating, Sandbur: 0
[14]; [22]
  Sandbur plant response rating: 0
[14]; Rate 250 g/ha
  Plant response rating, Sandbur: 0
[15]; [20]
  Plant response rating, Surinam grass: 0
[15]; [21]
  Plant response rating, Surinam grass: 0
[15]; [22]
  Surinam grass plant response rating: 20
[15]; [23]
  Surinam grass plant response rating: 30
[15]; Rate 250 g/ha
  Plant response rating, Surinam grass: 40
[16]; Rate 16 g/ha
  Plant response rating, Green foxtail: 0
[16]; Rate 32 g/ha
  Plant response rating, Green foxtail: 0
